Measurements as given in patent publication US8188306B2, “Heat shock protein 90 inhibitors” (University of Kansas, priority 2004, dated 2012).

Biological target: T1, Recombinant yeast Hsp90 (Saccharomyces cerevisiae, UniProt P02829)
T1 construct: made in house
Experiment: Inhibition of Hsp90 ATPase activity, production of inorganic phosphate
Type: biochemical
Details: incubated with ATP
Description: The present invention also evaluated the biological activity of some of the RAD amides prepared in accordance with the present invention. Recombinant yeast Hsp90 was overexpressed and purified according to the procedure of Buchner. Richter, et al., Coordinated ATP Hydrolysis by the Hsp90 Dimer. […] The yeast was a kind gift from Boris Kornikaeve at the University of Kansas Biomedical Research Service Laboratory.
The pure protein was incubated with ATP and one of three RAD amides (the quinone, the 1,4-hydroxy, or the 1,4-methoxy), and the production of inorganic phosphate was determined.

T1 sequence (P02829 whole entry): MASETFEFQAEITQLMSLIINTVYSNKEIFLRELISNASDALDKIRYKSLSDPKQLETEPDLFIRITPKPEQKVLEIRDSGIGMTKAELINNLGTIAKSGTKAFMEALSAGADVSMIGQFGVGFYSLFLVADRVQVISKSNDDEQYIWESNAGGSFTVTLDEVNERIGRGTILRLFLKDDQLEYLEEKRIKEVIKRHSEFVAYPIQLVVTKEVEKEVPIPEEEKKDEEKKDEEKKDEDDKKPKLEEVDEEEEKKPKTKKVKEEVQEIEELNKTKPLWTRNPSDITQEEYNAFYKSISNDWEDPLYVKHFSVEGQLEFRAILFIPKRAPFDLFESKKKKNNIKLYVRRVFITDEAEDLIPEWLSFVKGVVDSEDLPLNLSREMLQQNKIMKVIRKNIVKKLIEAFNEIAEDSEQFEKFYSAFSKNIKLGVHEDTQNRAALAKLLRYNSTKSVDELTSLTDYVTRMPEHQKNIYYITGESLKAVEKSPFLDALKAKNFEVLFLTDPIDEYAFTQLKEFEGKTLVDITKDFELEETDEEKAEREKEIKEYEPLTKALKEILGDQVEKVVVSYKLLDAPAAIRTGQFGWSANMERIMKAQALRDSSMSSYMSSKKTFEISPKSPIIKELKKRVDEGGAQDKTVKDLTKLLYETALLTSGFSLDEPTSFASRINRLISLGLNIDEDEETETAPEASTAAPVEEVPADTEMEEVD

**Q.** Which results are given for `COC(=O)c1c(O)cc(O)c(Cl)c1CCC(=O)NC1=CC(=O)C(OC)=CC1=O` [Quinone]?
**A.** IC50 (IC50 (μm), table): 5.9 µM; IC50 (IC50 / inhibitory activity): 1.8 µM
